In article PMC5231396 (ACS chemical neuroscience, 2016):

Target: T1, M1 muscarinic acetylcholine receptor (Mus musculus, UniProt P12657)
T1 sequence (P12657 1-460): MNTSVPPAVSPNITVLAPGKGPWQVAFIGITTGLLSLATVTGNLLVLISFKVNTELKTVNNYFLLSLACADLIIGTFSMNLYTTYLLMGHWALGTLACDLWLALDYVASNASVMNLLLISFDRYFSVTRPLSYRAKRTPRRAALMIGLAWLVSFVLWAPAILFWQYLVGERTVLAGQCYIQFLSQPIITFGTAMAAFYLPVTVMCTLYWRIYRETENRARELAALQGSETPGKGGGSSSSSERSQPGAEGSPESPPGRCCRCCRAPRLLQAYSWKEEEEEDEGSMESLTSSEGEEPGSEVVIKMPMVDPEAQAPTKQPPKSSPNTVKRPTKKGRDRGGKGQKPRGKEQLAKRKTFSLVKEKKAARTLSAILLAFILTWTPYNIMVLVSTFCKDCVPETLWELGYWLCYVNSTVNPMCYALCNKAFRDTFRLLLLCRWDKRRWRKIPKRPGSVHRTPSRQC
Test: previously published M1 PAM compared side-by-side with VU6004256
Assay type: cell-based

## Cn1cc(-c2ccc(CN3Cc4ncccc4C3=O)c(F)c2)cn1 [compound 1, VU0453595]
  EC50: 3.22 µM
